Experimental data taken from PubChem BioAssay AID248 (DTP/NCI, 2004).
Where “and” joins values, the source holds several entries; their conditions need not be identical. Identical values can stand only once. Toxic doses and inconclusive results are not listed. Cut-off read from the data, not from the text of the source: active = T/C of 150% or more; inactive = T/C below 125%.

Tested on: L1210 leukemia ip in BDF1 mice, survival T/C
Assay: NCI In Vivo Anticancer Drug Screen. Data for tumor model L1210 Leukemia (intraperitoneal) in B6D2F1 (BDF1) mice
Details: endpoint: mean survival time, higher = longer survival
Summary of the method: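 Mice bearing the transplanted tumor received compound or vehicle. Survival of the treated group was divided by that of the vehicle-treated control group to give the ratio.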

[1] = dose: 100.0 mg/kg/injection, schedule: Q01DX001 (ip), vehicle: saline
[2] = dose: 200.0 mg/kg/injection, schedule: Q01DX001 (ip), vehicle: saline
[3] = dose: 400.0 mg/kg/injection, schedule: Q01DX001 (ip), vehicle: saline
[4] = dose: 100.0 mg/kg/injection, schedule: Q04DX003 (ip), vehicle: saline
[5] = dose: 200.0 mg/kg/injection, schedule: Q04DX003 (ip), vehicle: saline
[6] = dose: 100.0 mg/kg/injection, schedule: Q01DX001 (ip), vehicle: carboxymethylcellulose (CMC)
[7] = dose: 200.0 mg/kg/injection, schedule: Q01DX001 (ip), vehicle: carboxymethylcellulose (CMC)
[8] = dose: 400.0 mg/kg/injection, schedule: Q01DX001 (ip), vehicle: carboxymethylcellulose (CMC)
[9] = dose: 100.0 mg/kg/injection, schedule: Q04DX003 (ip), vehicle: saline with Tween-80
[10] = dose: 200.0 mg/kg/injection, schedule: Q04DX003 (ip), vehicle: saline with Tween-80
[11] = dose: 400.0 mg/kg/injection, schedule: Q04DX003 (ip), vehicle: saline with Tween-80
[12] = dose: 100.0 mg/kg/injection, schedule: Q04DX002 (ip), vehicle: saline
[13] = dose: 200.0 mg/kg/injection, schedule: Q04DX002 (ip), vehicle: saline
[14] = dose: 100.0 mg/kg/injection, schedule: Q01DX009 (ip), vehicle: Klucel (hydroxypropylcellulose) (HPC)
[15] = dose: 100.0 mg/kg/injection, schedule: Q04DX003 (ip), vehicle: Klucel (hydroxypropylcellulose) (HPC)
[16] = dose: 400.0 mg/kg/injection, schedule: Q04DX003 (ip), vehicle: saline
[17] = dose: 100.0 mg/kg/injection, schedule: Q01DX009 (ip), vehicle: saline

Measured: T/C

CCN(CC)C(=S)SS(C)(=O)=O
inactive: [1] 101 % of control | dose: 100.0 mg/kg/injection, schedule: Q04DX003 (ip), vehicle: acetone 97 % of control | [2] 97 % of control | dose: 200.0 mg/kg/injection, schedule: Q04DX003 (ip), vehicle: acetone 103 % of control | [3] 97 % of control | dose: 400.0 mg/kg/injection, schedule: Q04DX003 (ip), vehicle: acetone 101 % of control

C=C1CCC(c2ccccc2)N(C)C1=O (configuration not stated)
inactive: dose: 25.0 mg/kg/injection, schedule: Q01DX001 (ip), vehicle: saline with Tween-80 104 % of control | dose: 50.0 mg/kg/injection, schedule: Q01DX001 (ip), vehicle: saline with Tween-80 101 % of control | dose: 100.0 mg/kg/injection, schedule: Q01DX001 (ip), vehicle: saline with Tween-80 98 % of control | dose: 200.0 mg/kg/injection, schedule: Q01DX001 (ip), vehicle: saline with Tween-80 98 % of control

CCCNC(=O)c1ccc(N)cc1
inactive: [1] 104 % of control | [2] 97 % of control | [3] 97 % of control

CCN(C(=O)CCl)C(C)(C)C(SSSC(c1ccc(Cl)cc1)C(C)(C)N(CC)C(=O)CCl)c1ccc(Cl)cc1 (configuration not stated)
inactive: [4] 95 % of control | [5] 91 % of control

CC(C)(CNCc1ccco1)[N+](=O)[O-]
inactive: dose: 50.0 mg/kg/injection, schedule: Q01DX009 (ip), vehicle: other 103 % of control | dose: 100.0 mg/kg/injection, schedule: Q01DX009 (ip), vehicle: other 95 % of control | dose: 200.0 mg/kg/injection, schedule: Q01DX009 (ip), vehicle: other 106 % of control

CCCC(Sc1ncnc2nc[nH]c12)C(=O)O (configuration not stated)
inactive: [6] 95 % of control | [7] 98 % of control | [8] 103 % of control

CC[CH2][Ge]([CH2]CC)([CH2]CC)[O][Ge]([CH2]CC)([CH2]CC)[CH2]CC
inactive: dose: 50.0 mg/kg/injection, schedule: Q01DX001 (ip), vehicle: carboxymethylcellulose (CMC) 96 % of control | dose: 50.0 mg/kg/injection, schedule: Q01DX001 (ip), vehicle: saline 95 % of control | [6] 100 % of control | [1] 101 % of control | [7] 100 % of control | [2] 104 % of control | [8] 105 % of control

O=Cc1ccc([N+](=O)[O-])s1
inactive: dose: 100.0 mg/kg/injection, schedule: Q01DX009 (ip), vehicle: saline with Tween-80 101 % of control | [9] 102 % of control | dose: 200.0 mg/kg/injection, schedule: Q01DX009 (ip), vehicle: saline with Tween-80 97 % of control | [10] 110 % of control | dose: 400.0 mg/kg/injection, schedule: Q01DX009 (ip), vehicle: saline with Tween-80 101 % of control | [11] 121 % of control

CCCCCCCCc1ccccc1
inactive: [12] 99 % of control | [13] 96 % of control | dose: 400.0 mg/kg/injection, schedule: Q04DX002 (ip), vehicle: saline 99 % of control

CC(C)C1C(C(=O)O)NC(=O)C1C(=O)O (configuration not stated)
inactive: dose: 12.0 mg/kg/injection, schedule: Q01DX009 (ip), vehicle: saline with Tween-80 106 % of control | dose: 25.0 mg/kg/injection, schedule: Q01DX009 (ip), vehicle: Klucel (hydroxypropylcellulose) (HPC) 106 % of control | dose: 25.0 mg/kg/injection, schedule: Q01DX009 (ip), vehicle: saline with Tween-80 99 % of control | dose: 50.0 mg/kg/injection, schedule: Q01DX009 (ip), vehicle: saline with Tween-80 97 % of control | [14] 108 % of control | [15] 96 % of control | dose: 200.0 mg/kg/injection, schedule: Q04DX003 (ip), vehicle: Klucel (hydroxypropylcellulose) (HPC) 98 % of control | dose: 400.0 mg/kg/injection, schedule: Q04DX003 (ip), vehicle: Klucel (hydroxypropylcellulose) (HPC) 95 % of control

O=C([S][Pb]([c]1ccccc1)([c]1ccccc1)[c]1ccccc1)c1ccccc1
inactive: dose: 2.0 mg/kg/injection, schedule: Q01DX009 (ip), vehicle: Klucel (hydroxypropylcellulose) (HPC) 109 % of control | dose: 2.0 mg/kg/injection, schedule: Q04DX003 (ip), vehicle: Klucel (hydroxypropylcellulose) (HPC) 89 % of control | dose: 4.0 mg/kg/injection, schedule: Q01DX009 (ip), vehicle: Klucel (hydroxypropylcellulose) (HPC) 123 % of control | dose: 4.0 mg/kg/injection, schedule: Q04DX003 (ip), vehicle: Klucel (hydroxypropylcellulose) (HPC) 97 % of control | dose: 8.0 mg/kg/injection, schedule: Q01DX009 (ip), vehicle: Klucel (hydroxypropylcellulose) (HPC) 90 % of control | dose: 8.0 mg/kg/injection, schedule: Q04DX003 (ip), vehicle: Klucel (hydroxypropylcellulose) (HPC) 94 % of control and 97 % of control | dose: 11.0 mg/kg/injection, schedule: Q04DX003 (ip), vehicle: Klucel (hydroxypropylcellulose) (HPC) 100 % of control

NCCCN
inactive: [4] 97 % of control | [5] 98 % of control | [16] 98 % of control

O=C(CCN1CC1)OC1CCCC1
inactive: dose: 0.25 mg/kg/injection, schedule: Q01DX009 (ip), vehicle: Klucel (hydroxypropylcellulose) (HPC) 91 % of control | dose: 0.5 mg/kg/injection, schedule: Q01DX009 (ip), vehicle: Klucel (hydroxypropylcellulose) (HPC) 97 % of control | dose: 1.0 mg/kg/injection, schedule: Q01DX009 (ip), vehicle: Klucel (hydroxypropylcellulose) (HPC) 103 % of control | dose: 2.5 mg/kg/injection, schedule: Q01DX009 (ip), vehicle: Klucel (hydroxypropylcellulose) (HPC) 100 % of control | dose: 20.0 mg/kg/injection, schedule: Q04DX003 (ip), vehicle: Klucel (hydroxypropylcellulose) (HPC) 98 % of control | dose: 40.0 mg/kg/injection, schedule: Q04DX003 (ip), vehicle: Klucel (hydroxypropylcellulose) (HPC) 97 % of control | dose: 80.0 mg/kg/injection, schedule: Q04DX003 (ip), vehicle: Klucel (hydroxypropylcellulose) (HPC) 97 % of control | [15] 102 % of control

c1ccc(-c2cccc([Si](c3ccccc3)(c3ccccc3)c3cccc(-c4ccccc4)c3)c2)cc1
inactive: [9] 92 % of control | [10] 88 % of control | [11] 97 % of control

Nc1ccc(C(=O)Nc2cccc(S(=O)(=O)F)c2)cc1
inactive: [1] 107 % of control | [2] 106 % of control | [3] 90 % of control

CC(=O)OS(C)(=O)=O
inactive: dose: 50.0 mg/kg/injection, schedule: Q01DX009 (ip), vehicle: Klucel (hydroxypropylcellulose) (HPC) 100 % of control | [14] 100 % of control | [15] 105 % of control

CC1=NN(c2ccc(S(=O)(=O)O)cc2)C(=O)/C1=C\c1c(C)[nH]n(-c2ccc(S(=O)(=O)O)cc2)c1=O
inactive: [17] 97 % of control | [4] 91 % of control | dose: 200.0 mg/kg/injection, schedule: Q01DX009 (ip), vehicle: saline 106 % of control | [5] 95 % of control | dose: 400.0 mg/kg/injection, schedule: Q01DX009 (ip), vehicle: saline 92 % of control | [16] 91 % of control

CCCNC(Cc1ccccc1)c1ccco1 (configuration not stated)
inactive: dose: 50.0 mg/kg/injection, schedule: Q01DX009 (ip), vehicle: saline 104 % of control | [17] 110 % of control | [12] 97 % of control | [13] 93 % of control
